Results taken from publication PMC6409085, “Three odorant-binding proteins are involved in the behavioral response of Sogatella furcifera to rice plant volatiles” (PeerJ, 2019).
Values joined by “and” are separate entries in the source; they are usually repeats but may differ in a detail not shown here. Equal entries are not always repeated.

Columns and labels:
SfurOBP1 = SfurOBP1 (Sogatella furcifera, UniProt V5T8N5); experiment: biochemical; type: binding; settings: for Fluorescence competitive binding assay, fluorescence intensity: OBP1, three replicate columns
Summary of the method: (§1)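 1-NPN displacement assay with odorant competitor at 2–20 µM; protein and probe both 2.0 µM at pH 7.4. Ki is calculated from IC50 using the protein/1-NPN dissociation constant.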

SfurOBP11 = SfurOBP11 (Sogatella furcifera, UniProt V5T6E3); experiment: biochemical; type: binding
Summary of the method: as §1

SfurOBP2 = SfurOBP2 (Sogatella furcifera, UniProt V5T759); experiment: biochemical; type: binding
Summary of the method: as §1

SfurOBP3 = SfurOBP3 (Sogatella furcifera, UniProt V5T818); experiment: biochemical; type: binding; settings: for Fluorescence competitive binding assay, fluorescence intensity: OBP3, three replicate columns
Summary of the method: as §1

S. furcifera adults = experiment: Y-tube olfactometer behavioral trials; type: in vivo, Sogatella furcifera; settings: odorant 50 µL/L vs hexane
Summary of the method: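 Single S. furcifera adults (2 days post-emergence, starved 0.5 h) chose between odorant (100 µL of 50 µL/L on filter paper) and hexane control in a glass Y-tube, charcoal-filtered humidified air 300 mL/min per arm, 25 ± 1 °C, 50% RH. Choice scored if insect passed half an arm and stayed >1 min within 10 min; 45 insects per compound, chi-squared test.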

Chain of SfurOBP2 (V5T759 entry or part of it): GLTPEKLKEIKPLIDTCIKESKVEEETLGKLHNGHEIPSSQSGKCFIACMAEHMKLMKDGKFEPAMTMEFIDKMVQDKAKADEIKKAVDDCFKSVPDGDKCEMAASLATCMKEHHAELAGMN
Chain of SfurOBP1 (V5T8N5 entry or part of it): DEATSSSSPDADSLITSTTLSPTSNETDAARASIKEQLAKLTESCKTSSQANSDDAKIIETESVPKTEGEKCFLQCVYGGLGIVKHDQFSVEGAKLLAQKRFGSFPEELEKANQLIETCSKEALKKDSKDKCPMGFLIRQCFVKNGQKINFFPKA
Chain of SfurOBP11 (V5T6E3 entry or part of it): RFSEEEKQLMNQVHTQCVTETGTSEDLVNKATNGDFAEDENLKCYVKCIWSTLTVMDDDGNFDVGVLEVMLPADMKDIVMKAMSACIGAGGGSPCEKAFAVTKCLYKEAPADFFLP
Chain of SfurOBP3 (V5T818 entry or part of it): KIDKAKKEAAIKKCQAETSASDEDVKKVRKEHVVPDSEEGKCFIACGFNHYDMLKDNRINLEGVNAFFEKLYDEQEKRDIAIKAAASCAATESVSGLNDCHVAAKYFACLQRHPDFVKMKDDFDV

SMILES: CCCCCCCCCCC [n-hendecane]
- Fluorescence competitive binding assay, fluorescence intensity (SfurOBP1; ligand concentration 2 (μM)): 8889 and 7931 and 9847
- Fluorescence competitive binding assay, fluorescence intensity (SfurOBP1; ligand concentration 4 (μM)): 9154 and 8432 and 9875
- Fluorescence competitive binding assay, fluorescence intensity (SfurOBP1; ligand concentration 6 (μM)): 7581 and 8720 and 8173
- Fluorescence competitive binding assay, fluorescence intensity (SfurOBP1; ligand concentration 8 (μM)): 8276 and 7641 and 8381
- Fluorescence competitive binding assay, fluorescence intensity (SfurOBP1; ligand concentration 10 (μM)): 7644 and 8267 and 8233
- Fluorescence competitive binding assay, fluorescence intensity (SfurOBP1; ligand concentration 12 (μM)): 8969 and 10263 and 9250
- Fluorescence competitive binding assay, fluorescence intensity (SfurOBP1; ligand concentration 14 (μM)): 8392 and 9042 and 10874
- Fluorescence competitive binding assay, fluorescence intensity (SfurOBP1; ligand concentration 16 (μM)): 8482 and 9466 and 8778
- Fluorescence competitive binding assay, fluorescence intensity (SfurOBP1; ligand concentration 18 (μM)): 11781 and 12671 and 12573
- Fluorescence competitive binding assay, fluorescence intensity (SfurOBP1; ligand concentration 20 (μM)): 13259 and 11367 and 9255
- IC50 (SfurOBP1; SfurOBP1, protein and 1-NPN both 2.0 µM, competitor 2-20 µM, read-out: IC50): > 20 µM
- IC50 (SfurOBP11; SfurOBP11, protein and 1-NPN both 2.0 µM, competitor 2-20 µM, read-out: IC50): > 20 µM
- Fluorescence intensity, fluorescence competitive binding assay, OBP11 (SfurOBP11; ligand concentration 2, replicate 1): 27436
- Fluorescence intensity, fluorescence competitive binding assay, OBP11 (SfurOBP11; ligand concentration 2, replicate 2): 25403
- Fluorescence intensity, fluorescence competitive binding assay, OBP11 (SfurOBP11; ligand concentration 2, replicate 3): 32188
- Fluorescence intensity, fluorescence competitive binding assay, OBP11 (SfurOBP11; ligand concentration 4, replicate 1): 29413
- Fluorescence intensity, fluorescence competitive binding assay, OBP11 (SfurOBP11; ligand concentration 4, replicate 2): 28026
- Fluorescence intensity, fluorescence competitive binding assay, OBP11 (SfurOBP11; ligand concentration 4, replicate 3): 33638
- Fluorescence intensity, fluorescence competitive binding assay, OBP11 (SfurOBP11; ligand concentration 6, replicate 1): 33021
- Fluorescence intensity, fluorescence competitive binding assay, OBP11 (SfurOBP11; ligand concentration 6, replicate 2): 33682
- Fluorescence intensity, fluorescence competitive binding assay, OBP11 (SfurOBP11; ligand concentration 6, replicate 3): 34343
- Fluorescence intensity, fluorescence competitive binding assay, OBP11 (SfurOBP11; ligand concentration 8, replicate 1): 31948
- Fluorescence intensity, fluorescence competitive binding assay, OBP11 (SfurOBP11; ligand concentration 8, replicate 2): 30771
- Fluorescence intensity, fluorescence competitive binding assay, OBP11 (SfurOBP11; ligand concentration 8, replicate 3): 33124
- Fluorescence intensity, fluorescence competitive binding assay, OBP11 (SfurOBP11; ligand concentration 10, replicate 1): 30756
- Fluorescence intensity, fluorescence competitive binding assay, OBP11 (SfurOBP11; ligand concentration 10, replicate 2): 30287
- Fluorescence intensity, fluorescence competitive binding assay, OBP11 (SfurOBP11; ligand concentration 10, replicate 3): 30522
- Fluorescence intensity, fluorescence competitive binding assay, OBP11 (SfurOBP11; ligand concentration 12, replicate 1): 29262
- Fluorescence intensity, fluorescence competitive binding assay, OBP11 (SfurOBP11; ligand concentration 12, replicate 2): 31182
- Fluorescence intensity, fluorescence competitive binding assay, OBP11 (SfurOBP11; ligand concentration 12, replicate 3): 32197
- Fluorescence intensity, fluorescence competitive binding assay, OBP11 (SfurOBP11; ligand concentration 14, replicate 1): 28697
- Fluorescence intensity, fluorescence competitive binding assay, OBP11 (SfurOBP11; ligand concentration 14, replicate 2): 28336
- Fluorescence intensity, fluorescence competitive binding assay, OBP11 (SfurOBP11; ligand concentration 14, replicate 3): 31391
- Fluorescence intensity, fluorescence competitive binding assay, OBP11 (SfurOBP11; ligand concentration 16, replicate 1): 26235
- Fluorescence intensity, fluorescence competitive binding assay, OBP11 (SfurOBP11; ligand concentration 16, replicate 2): 27774
- Fluorescence intensity, fluorescence competitive binding assay, OBP11 (SfurOBP11; ligand concentration 16, replicate 3): 27525
- Fluorescence intensity, fluorescence competitive binding assay, OBP11 (SfurOBP11; ligand concentration 18, replicate 1): 34849
- Fluorescence intensity, fluorescence competitive binding assay, OBP11 (SfurOBP11; ligand concentration 18, replicate 2): 34941
- Fluorescence intensity, fluorescence competitive binding assay, OBP11 (SfurOBP11; ligand concentration 18, replicate 3): 33114
- Fluorescence intensity, fluorescence competitive binding assay, OBP11 (SfurOBP11; ligand concentration 20, replicate 1): 29304
- Fluorescence intensity, fluorescence competitive binding assay, OBP11 (SfurOBP11; ligand concentration 20, replicate 2): 30167
- Fluorescence intensity, fluorescence competitive binding assay, OBP11 (SfurOBP11; ligand concentration 20, replicate 3): 28561
- IC50 (SfurOBP2; SfurOBP2, protein and 1-NPN both 2.0 µM, competitor 2-20 µM, read-out: IC50): > 20 µM
- Fluorescence competitive binding assay, OBP2 (raw fluorescence reading) (SfurOBP2; ligand concentration 2 (unit not given), replicate column 1 of 3): 13775
- Fluorescence competitive binding assay, OBP2 (raw fluorescence reading) (SfurOBP2; ligand concentration 2 (unit not given), replicate column 2 of 3): 13769
- Fluorescence competitive binding assay, OBP2 (raw fluorescence reading) (SfurOBP2; ligand concentration 2 (unit not given), replicate column 3 of 3): 13734
- Fluorescence competitive binding assay, OBP2 (raw fluorescence reading) (SfurOBP2; ligand concentration 4 (unit not given), replicate column 1 of 3): 13631
- Fluorescence competitive binding assay, OBP2 (raw fluorescence reading) (SfurOBP2; ligand concentration 4 (unit not given), replicate column 2 of 3): 13783
- Fluorescence competitive binding assay, OBP2 (raw fluorescence reading) (SfurOBP2; ligand concentration 4 (unit not given), replicate column 3 of 3): 13500
- Fluorescence competitive binding assay, OBP2 (raw fluorescence reading) (SfurOBP2; ligand concentration 6 (unit not given), replicate column 1 of 3): 14480
- Fluorescence competitive binding assay, OBP2 (raw fluorescence reading) (SfurOBP2; ligand concentration 6 (unit not given), replicate column 2 of 3): 14028
- Fluorescence competitive binding assay, OBP2 (raw fluorescence reading) (SfurOBP2; ligand concentration 6 (unit not given), replicate column 3 of 3): 13866
- Fluorescence competitive binding assay, OBP2 (raw fluorescence reading) (SfurOBP2; ligand concentration 8 (unit not given), replicate column 1 of 3): 14049
- Fluorescence competitive binding assay, OBP2 (raw fluorescence reading) (SfurOBP2; ligand concentration 8 (unit not given), replicate column 2 of 3): 14101
- Fluorescence competitive binding assay, OBP2 (raw fluorescence reading) (SfurOBP2; ligand concentration 8 (unit not given), replicate column 3 of 3): 13901
- Fluorescence competitive binding assay, OBP2 (raw fluorescence reading) (SfurOBP2; ligand concentration 10 (unit not given), replicate column 1 of 3): 14583
- Fluorescence competitive binding assay, OBP2 (raw fluorescence reading) (SfurOBP2; ligand concentration 10 (unit not given), replicate column 2 of 3): 14099
- Fluorescence competitive binding assay, OBP2 (raw fluorescence reading) (SfurOBP2; ligand concentration 10 (unit not given), replicate column 3 of 3): 14077
- Fluorescence competitive binding assay, OBP2 (raw fluorescence reading) (SfurOBP2; ligand concentration 12 (unit not given), replicate column 1 of 3): 12819
- Fluorescence competitive binding assay, OBP2 (raw fluorescence reading) (SfurOBP2; ligand concentration 12 (unit not given), replicate column 2 of 3): 13447
- Fluorescence competitive binding assay, OBP2 (raw fluorescence reading) (SfurOBP2; ligand concentration 12 (unit not given), replicate column 3 of 3): 13211
- Fluorescence competitive binding assay, OBP2 (raw fluorescence reading) (SfurOBP2; ligand concentration 14 (unit not given), replicate column 1 of 3): 12583
- Fluorescence competitive binding assay, OBP2 (raw fluorescence reading) (SfurOBP2; ligand concentration 14 (unit not given), replicate column 2 of 3): 13279
- Fluorescence competitive binding assay, OBP2 (raw fluorescence reading) (SfurOBP2; ligand concentration 14 (unit not given), replicate column 3 of 3): 13266
- Fluorescence competitive binding assay, OBP2 (raw fluorescence reading) (SfurOBP2; ligand concentration 16 (unit not given), replicate column 1 of 3): 12291
- Fluorescence competitive binding assay, OBP2 (raw fluorescence reading) (SfurOBP2; ligand concentration 16 (unit not given), replicate column 2 of 3): 12273
- Fluorescence competitive binding assay, OBP2 (raw fluorescence reading) (SfurOBP2; ligand concentration 16 (unit not given), replicate column 3 of 3): 12414
- Fluorescence competitive binding assay, OBP2 (raw fluorescence reading) (SfurOBP2; ligand concentration 18 (unit not given), replicate column 1 of 3): 15293
- Fluorescence competitive binding assay, OBP2 (raw fluorescence reading) (SfurOBP2; ligand concentration 18 (unit not given), replicate column 2 of 3): 14599
- Fluorescence competitive binding assay, OBP2 (raw fluorescence reading) (SfurOBP2; ligand concentration 18 (unit not given), replicate column 3 of 3): 14178
- Fluorescence competitive binding assay, OBP2 (raw fluorescence reading) (SfurOBP2; ligand concentration 20 (unit not given), replicate column 1 of 3): 14271
- Fluorescence competitive binding assay, OBP2 (raw fluorescence reading) (SfurOBP2; ligand concentration 20 (unit not given), replicate column 2 of 3): 14231
- Fluorescence competitive binding assay, OBP2 (raw fluorescence reading) (SfurOBP2; ligand concentration 20 (unit not given), replicate column 3 of 3): 15281
- Fluorescence competitive binding assay, fluorescence intensity (SfurOBP3; ligand concentration 2): 74152 and 72365 and 72059
- Fluorescence competitive binding assay, fluorescence intensity (SfurOBP3; ligand concentration 4): 77402 and 81799 and 77600
- Fluorescence competitive binding assay, fluorescence intensity (SfurOBP3; ligand concentration 6): 79862 and 82180 and 72867
- Fluorescence competitive binding assay, fluorescence intensity (SfurOBP3; ligand concentration 8): 73959 and 76680 and 68556
- Fluorescence competitive binding assay, fluorescence intensity (SfurOBP3; ligand concentration 10): 74938 and 80983 and 75877
- Fluorescence competitive binding assay, fluorescence intensity (SfurOBP3; ligand concentration 12): 71318 and 75448 and 71285
- Fluorescence competitive binding assay, fluorescence intensity (SfurOBP3; ligand concentration 14): 70629 and 72724 and 74851
- Fluorescence competitive binding assay, fluorescence intensity (SfurOBP3; ligand concentration 16): 63137 and 66714 and 63682
- Fluorescence competitive binding assay, fluorescence intensity (SfurOBP3; ligand concentration 18): 73714 and 82385 and 76604
- Fluorescence competitive binding assay, fluorescence intensity (SfurOBP3; ligand concentration 20): 75970 and 66519 and 62854
- IC50 (SfurOBP3; SfurOBP3, protein and 1-NPN both 2.0 µM, competitor 2-20 µM, read-out: IC50): > 20 µM
- behavioral response of S. furcifera (in words) (S. furcifera adults): strongly attracted
- number of insects choosing hexane arm (S. furcifera adults; adults): 8
- number of insects choosing volatilies arm (S. furcifera adults; adults): 18
- number of insects failed (no choice) (S. furcifera adults; adults): 14
